Article PMC9775191, “A Subset Screen of the Compounds Australia Scaffold Library Identifies 7-Acylaminodibenzoxazepinones as Potent and Selective Hits for Anti-Giardia Drug Discovery” (Biomedicines, 2022)

System: G. duodenalis BRIS/91/HEPU/1279
Assay: Primary Giardia screen at 10 µM (live-cell imaging, automated counting)
Assay type: cell-based, Giardia duodenalis
Details: for % Inhibition n=1 48h / % Inhibition n=1 24h: first singlicate assay; for % Inhibition n=2 24h / % Inhibition n=2 48h: re-assessment
Procedure, shortened: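 Compound added to 10 μM final in medium with 0.2% DMSO, one well each; plates then held in sealed chambers at 3% O2, 5% CO2 in N2; growth imaged and counted automatically at 24 and 48 h; values normalised to vehicle wells minus media blank.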

SMILES | % Inhibition n=1 48h [%] | further results
COc1ccc(-c2nc(Cn3nnc(C(=O)Nc4ccc(F)cc4F)c3N)c(C)o2)c(OC)c1 [SN00797364] | 3.5 | 
Cc1nnc(-c2nnc(NCc3ccccc3)c3ccccc23)o1 [SN00800540] | 1.6 | 
CCN1CCN(c2ccc(-c3nc(-c4cccc(F)c4)no3)cn2)CC1 [SN00796649] | 48.2 | 
CCN(c1ccccc1)S(=O)(=O)c1ccc2[nH]cc(C(=O)NCCOC)c(=O)c2c1 [SN00794693] | 10.4 | 
C=CCNC(=O)CCN1CCN(Cc2ccccc2)C1=O [SN00791850] | 0.0 | 
O=C(NCc1ccc2c(c1)CCN2C(=O)c1ccccc1)c1n[nH]c2c1CCc1ccccc1-2 [SN00793591] | 5.7 | 
O=C(N1CCC(CCOCc2cccc(F)c2)CC1)C1(c2ccccc2)CC1 [SN00799224] | 0.0 | 
O=C1O[C@@H]2C[C@H]3C[C@@H]2[C@@H]1[C@H]3C(=O)Nc1ccc(C(=O)N2CC=C(c3ccccc3)CC2)cc1 [SN00785926] | 11.8 | 
Cc1cc(N2CCN(c3ccccc3F)CC2)n2cnnc2n1 [SN00785845] | 30.4 | 
O=C(NCc1ccccc1)c1nc[nH]c1C(=O)NCc1cccc(C(F)(F)F)c1 [SN00786288] | 20.4 | 
Cc1ccc(COCc2nn(C)c3c2CN(S(=O)(=O)c2ccc(F)c(C)c2)CC3)cc1 [SN00796451] | 2.1 | 
Cc1noc(-c2c(C)sc(C)c2S(=O)(=O)NCc2ccccc2)c1C [SN00789144] | 30.5 | 
CCOc1ccccc1N1C(=O)C(=O)N(Cc2nc(C)no2)C1=O [SN00774186] | 14.0 | 
CN(C)c1nc(N(C)C)nc(N2CC(=O)N(c3ccc(Cl)c(Cl)c3)C2=N)n1 [SN00783378] | 16.0 | 
COc1ccc(-c2c(C(=O)Nc3cccc(Cl)c3)nn3c(C)cc(=O)[nH]c23)cc1 [SN00795279] | 7.0 | 
CN(C)CCn1c(=O)c2[nH]cnc2n(C)c1=O [SN00785782] | 13.4 | 
CCN(Cc1ccccc1)C(=O)c1cc(-c2ccccc2)n[nH]1 [SN00788230] | 36.1 | 
Cc1oc(-c2ccccc2)nc1C(=O)N1CCN(S(=O)(=O)c2ccc(Br)s2)CC1 [SN00769595] | 23.5 | 
CC(C)CCNC(=O)C1(C)CCc2ccccc2C(=O)N1Cc1ccccc1F (stereo not shown) [SN00785390] | 14.6 | 
Cc1ccc(-c2nc(C(=O)N3CCN(c4ccc(Cl)cc4)CC3)cs2)s1 [SN00796526] | 7.8 | 
Cc1cc2nc(Sc3nnnn3CC3CCCO3)c3ccccc3n2n1 (stereo not shown) [SN00771233] | 16.5 | 
CC(C)n1c(=O)c2cn(S(=O)(=O)c3ccccc3)nc2n(C(C)C)c1=O [SN00791107] | 5.9 | 
CCn1c(=O)c(=O)n(CC(=O)NCc2ccc(SC)cc2)c2ccccc21 [SN00792977] | 16.0 | 
CCN(CC)C(=O)CN1C(=O)CN=C(c2ccc(OC)cc2)c2c1sc1c2CCCC1 [SN00791881] | 0.0 | 
Cc1ccc(S(=O)(=O)C2(C(=O)Nc3cn[nH]c3)CCC2)cc1 [SN00778835] | 0.0 | 
Cc1cc(C)cc(C(=O)NCc2ccc3c(c2)nnn3C)c1 [SN00798663] | 0.0 | 

SMILES | % Inhibition n=1 48h [%] | further results
C[C@@]1(O)CCN(C(=O)c2cccc(F)c2)C[C@H]1N1CCCC1 (relative stereo) [SN00801211] | 0.0 | 
CCOC(=O)c1ccc(NC(=O)c2nc(C)n(C3CCN(C(C)=O)CC3)c2C)cc1 [SN00800452] | 13.2 | 
Cn1c(C(=O)N2CCN(c3ccccc3)CC2)cc2c1CCN(Cc1ccccc1)C2 [SN00799590] | 1.6 | 
CN(C)C1(CNC(=O)COc2ccc(Br)cc2)CCCCC1 [SN00786247] | 5.1 | 
O=C(CC1COc2ccccc2N1Cc1ccccc1)N1CCc2ccccc2C1 (stereo not shown) [SN00790679] | 0.0 | 
Cc1cccc(-c2noc(C3CCCN3S(=O)(=O)c3cc(C)c(C)cc3C)n2)c1 (stereo not shown) [SN00797488] | 0.0 | 
O=C(Nc1cccnc1)C1=NN(Cc2ccccc2)C(=O)CC1 [SN00779378] | 15.0 | 
CCC(=O)N1N=C2C3CCN(CC3)[C@@H]2[C@@H]1c1cccc(OC)c1OC [SN00785687] | 13.8 | 
Cc1c(CN(C)C(=O)c2cc3nc(-c4cccs4)cc(C(F)(F)F)n3n2)cnn1C [SN00783696] | 0.0 | 
CC(C)(C)c1nc(CN2CCCN(C(=O)CCCNC(=O)NC3CCCCC3)CC2)no1 [SN00780682] | 11.6 | 
O=C(c1nc2nc(-c3ccco3)cc(C(F)(F)F)n2n1)N1CCCCCC1 [SN00794256] | 19.8 | 
Cn1cc(C(=O)N2CCCC2C2CCCCC2)ccc1=O (stereo not shown) [SN00779264] | 13.1 | 
COc1ccc(CNC(=O)N2CCC(c3ccn4ncc(C(=O)N5CCOCC5)c4c3)CC2)cc1 [SN00803088] | 0.7 | 
CCCS(=O)(=O)c1nc2ccc(NS(=O)(=O)CCc3ccccc3)cc2s1 [SN00797950] | 20.2 | 
CN(Cc1ccccc1)C(=O)c1cccc2c1CCN2C(=O)Nc1ccccc1 [SN00799558] | 0.0 | 
O=C(c1ccco1)N1CCC(OCc2nc(-c3ccncc3)no2)CC1 [SN00801147] | 18.6 | 
Cc1ccc(C)c(NC(=O)N2CCC(c3c[nH]c4ncccc34)CC2)c1 [SN00780701] | 0.0 | 
CCn1c(C)c(C2=CCN(S(=O)(=O)c3ccc(F)cc3)CC2)c2ccccc21 [SN00785221] | 17.2 | 
COc1ccc(Cl)cc1-n1nnc(-c2nsc(NC(=O)c3ccccc3)n2)c1C [SN00791316] | 20.0 | 
COc1ccc(CCn2c(=O)c3ncccc3n(Cc3ccc(C)cc3)c2=O)cc1OC [SN00789585] | 1.7 | 
CCn1nc(C(=O)NCc2ccccc2F)cc1-c1cc(C)sc1C [SN00802641] | 9.7 | 
O=S1(=O)CCC(Nc2nc(-c3ccccn3)nc3scc(-c4ccccc4)c23)C1 (stereo not shown) [SN00776030] | 24.9 | 
CCC(=O)N1CC(C(=O)NCCN(C)C)C2(CCOCC2)C1 (stereo not shown) [SN00802145] | 13.1 | 
O=C(C1CCCN(S(=O)(=O)c2ccccc2)C1)N1CCCC(C(F)(F)F)C1 (stereo not shown) [SN00774985] | 7.6 | 
Cc1nc(-c2ccc3c(c2)n(CC(=O)NC2CCN(Cc4ccccc4)CC2)c(=O)n3C(C)C)no1 [SN00798376] | 5.7 | 
CC(C)(C)OC(=O)N1CCN(C(=O)C2CCCNC2)CC1 (stereo not shown) [SN00769730] | 15.1 | 

SMILES | % Inhibition n=1 48h [%] | further results
COC(=O)c1cccc2c1CCCN2C(=O)C1CC(=O)N(CCc2ccccc2)C1 (stereo not shown) [SN00775178] | 0.0 | 
COc1cc2ccccc2cc1C(=O)Nc1nc2c(s1)CN(Cc1ccccc1)CC2 [SN00788706] | 9.9 | 
CCCNC(=O)c1sc(-n2nc(C)c(Cl)c2C)nc1C [SN00786172] | 52.5 | Average % Inhibition 24h: 7.3%; % Inhibition n=1 24h: 14.5%; % Inhibition n=2 24h: 0.0%; Average % Inhibition 48h: 27.0%; % Inhibition n=2 48h: 1.5%
CCOC(=O)Cn1c(=O)n(-c2ccccc2)c(=O)c2cc3c(nc21)CC(C)(C)OC3 [SN00786524] | 18.7 | 
Cc1ncc(C(=O)NC2C3CCCOC3C2(C)C)s1 (stereo not shown) [SN00782098] | 9.0 | 
CCCn1cc(S(=O)(=O)c2ccc(Cl)cc2)c(=O)c2cc(F)c(N3CCOCC3)cc21 [SN00787800] | 0.0 | 
CCCCNc1ncccc1-c1nc(-c2ccc(C)cc2)no1 [SN00786331] | 25.3 | 
Cc1nc(CN2CCCNCC2)oc1C [SN00778765] | 0.0 | 
O=C(Nc1ccc2sc(NS(=O)(=O)c3ccccc3)nc2c1)Nc1ccccc1Cl [SN00797595] | 4.6 | 
CS(=O)(=O)N1CCCc2cc(-c3csc(N)n3)ccc21 [SN00777047] | 7.2 | 
O=C(NCc1ccccc1Cl)c1cc2n(n1)CCCN(Cc1ccc(F)cc1)C2=O [SN00792328] | 0.0 | 
CSc1ccc(NC(=O)c2cn(C)c3ncccc23)cc1 [SN00799688] | 9.5 | 
CNC(=O)Nc1ccc(C2(C(=O)Nc3ccc(F)c(C)c3)CCC2)cc1 [SN00795530] | 0.0 | 
CCOC(=O)CNC(=O)N1Cc2c(C)nn(-c3ccccc3)c2-n2cccc2C1c1cccc(F)c1 (stereo not shown) [SN00792341] | 8.0 | 
CCCOc1ccc(CN2CCCC2c2c(C)noc2C)cc1 (stereo not shown) [SN00793908] | 16.7 | 
Cc1ccc(-c2cc(C(=O)NCc3cn(C)nc3C)c3ccccc3n2)cc1C [SN00783737] | 0.0 | 
O=C(Cc1csc(Cc2ccccn2)n1)Nc1ccc2nc(N3CCOCC3)sc2c1 [SN00779496] | 2.9 | 
Cc1noc(-c2nn(C)c3c2CN(S(=O)(=O)Cc2cccc(F)c2)CC3)n1 [SN00796798] | 14.3 | 
COc1cccc(C(=O)n2nc(-c3cccnc3)nc2NCc2ccc(C)cc2)c1 [SN00788624] | 24.5 | 
O=C(NC(c1ccccc1)C1CC1)c1ccc2c(c1)S(=O)(=O)Nc1ncnn1-2 (stereo not shown) [SN00773273] | 0.0 | 
CCc1nnsc1C(=O)N1CCCN(Cc2ccccc2F)CC1 [SN00782451] | 0.0 | 
CCOc1ccccc1OC1CCN(c2ncnc3nc[nH]c23)CC1 [SN00780570] | 31.1 | 
Cn1c(C(=O)NCc2ccc(F)cc2)cc2c(=O)n3ccccc3nc21 [SN00787284] | 0.0 | 
c1cnc(-c2nnc(C3CCCNC3)[nH]2)cn1 (stereo not shown) [SN00802129] | 2.3 | 
O=C(Cc1csc2nc(-c3ccccc3)cn12)NCCc1cccs1 [SN00796222] | 0.0 | 
COc1ccc(C2=Nc3ccccc3N(CC(=O)Nc3cccc(F)c3)C(=O)C2)cc1 [SN00791795] | 54.2 | Average % Inhibition 24h: 12.6%; % Inhibition n=1 24h: 25.2%; % Inhibition n=2 24h: 0.0%; Average % Inhibition 48h: 40.3%; % Inhibition n=2 48h: 26.4%
